Assay results from ChEMBL document CHEMBL1201862, “PubChem BioAssay data set” (2004).
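Cultured in 96-well plates, cells were exposed to test compound for 48 hours across five concentrations. Abbreviation: GI50, concentration required for 50% inhibition of growth.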 The source made the active and inactive calls. Rule as the data show it: active = GI50 up to about 1.1 µM and inactive = higher.

What was measured:
Test in all cases: growth of human tumour cells (NCI), 48 h
[1] = tested on: MCF7
[2] = tested on: HOP-62
[3] = tested on: A498
[4] = tested on: HL-60
[5] = tested on: DU-145
[6] = tested on: IGROV-1
[7] = tested on: OVCAR-8
[8] = tested on: NCI/ADR-RES
[9] = tested on: NCI-H460
[10] = tested on: MDA-MB-231
[11] = tested on: BT-549
[12] = tested on: KM12
[13] = tested on: Hs-578T
[14] = tested on: COLO 205
[15] = tested on: A549
[16] = tested on: 786-0
[17] = tested on: SNB-19
[18] = tested on: MDA-N
[19] = tested on: EKVX

Measured: GI50

Fc1ccc(C(OCCN2CC3CC2CN3)c2ccc(F)cc2)cc1 (stereo not given)
inactive: [1] 33.7 µM | [2] > 100 µM | [3] 44.9 µM | [4] 20.5 µM | [5] > 100 µM | [6] 53.3 µM | [7] > 100 µM | [8] 97.9 µM | [9] 38.9 µM | [10] 46.8 µM | [11] > 100 µM | [12] 39.6 µM | [13] 57.3 µM | [14] 18.2 µM

COC(=O)c1cc(CNCCc2c[nH]c3ccccc23)on1
inactive: [15] > 100 µM | [1] > 100 µM | [2] > 100 µM | [16] 33.8 µM | [3] > 100 µM | [4] > 100 µM | [5] > 100 µM | [6] > 100 µM | [7] > 100 µM | [17] > 100 µM | [8] > 100 µM | [18] > 100 µM | [9] > 58.1 µM | [19] > 100 µM | [12] > 100 µM | [13] > 100 µM | [14] > 100 µM

Cc1cc(C)c(/C=C(\C(=C/c2c(C)cc(C)cc2C)[N+](=O)[O-])[N+](=O)[O-])c(C)c1
inactive: [15] > 100 µM | [1] 58.9 µM | [2] > 100 µM | [5] > 100 µM | [6] > 100 µM | [17] > 100 µM | [18] > 100 µM | [9] 46.7 µM | [19] > 100 µM | [10] > 100 µM | [11] > 100 µM | [12] > 100 µM | [14] > 100 µM

Cc1c2ccccc2nc2[nH]c3ccncc3c12
inactive: [15] 30.7 µM | [2] 25.6 µM | [16] 16.3 µM | [3] 42.9 µM | [4] 26.9 µM | [5] 34.5 µM | [6] 29.5 µM | [7] 31.3 µM | [17] 36.1 µM | [8] 23.9 µM | [18] 35 µM | [9] 15.4 µM | [19] 13.9 µM | [10] 78.5 µM | [11] 40.6 µM | [12] 26.6 µM | [13] 50.7 µM | [14] 40.4 µM

CS(=O)(=O)OCC(CCl)(CCl)CCl
inactive: [15] > 100 µM | [1] > 100 µM | [3] > 100 µM | [5] > 100 µM | [7] > 100 µM | [17] > 100 µM | [8] > 100 µM | [18] > 100 µM | [9] > 100 µM | [10] > 100 µM | [12] > 100 µM | [13] > 100 µM | [14] > 100 µM

CC1=C(C(=O)OCCO[N+](=O)[O-])C(c2ccccc2C(F)(F)F)C(C(=O)OC(C)C)=C(C)N1 (stereo not given)
inactive: [15] 13.2 µM | [1] 16 µM | [2] 20.6 µM | [16] 15 µM | [3] 24.1 µM | [4] 15.9 µM | [5] 39.4 µM | [6] 13.1 µM | [7] 17.7 µM | [17] 18.2 µM | [8] 14.3 µM | [9] 10.7 µM | [19] 24.6 µM | [10] 10.9 µM | [11] 13.5 µM | [12] 8.63 µM | [14] 14 µM

CCP(=O)(CC)C(Cl)(Cl)C(=O)NC
inactive: [15] > 100 µM | [2] > 100 µM | [4] > 100 µM | [5] > 100 µM | [6] > 100 µM | [7] > 100 µM | [17] > 100 µM | [8] > 100 µM | [18] > 100 µM | [9] > 100 µM | [10] > 100 µM | [13] > 100 µM | [14] > 100 µM

CCOC(=O)CCC(NC(=O)OCc1ccccc1)C(=O)NC(CCC(=O)OCC)C(=O)NC(CCC(=O)OCC)C(=O)NC(CCC(=O)OCC)C(=O)NC(CCC(=O)OCC)C(=O)NC(CCC(=O)OCC)C(=O)NC(CCC(=O)OCC)C(=O)OCC (stereo not given)
inactive: [15] > 100 µM | [1] > 100 µM | [2] > 100 µM | [16] > 100 µM | [3] 84.9 µM | [4] > 100 µM | [5] > 100 µM | [7] > 100 µM | [17] > 100 µM | [18] > 100 µM | [9] > 100 µM | [10] > 100 µM | [11] > 100 µM

C/C(=C/C(=O)N(C)c1ccccc1Cl)O[Si](C(C)C)(C(C)C)C(C)C
inactive: [15] 36.1 µM | [2] 26.8 µM | [16] 18.1 µM | [3] > 10 µM | [5] 32.1 µM | [6] 23.1 µM | [7] 20.7 µM | [17] 23.7 µM | [8] 19.9 µM | [18] 21.3 µM | [9] 26.9 µM | [19] 26.4 µM | [10] 22.4 µM | [11] 22.5 µM | [12] 32.4 µM | [14] 16.8 µM

O=c1c(-c2ccccc2)c(SCCCN2CCN(c3cccc(Cl)c3)CC2)n(-c2ccccc2)c(=S)n1-c1ccccc1
inactive: [1] > 100 µM | [2] > 100 µM | [3] > 100 µM | [4] > 100 µM | [5] > 100 µM | [6] > 100 µM | [7] > 100 µM | [8] > 100 µM | [9] > 100 µM | [19] > 100 µM | [10] > 100 µM | [11] > 100 µM | [12] 46.5 µM | [13] > 100 µM | [14] > 100 µM

O=c1c(C(c2ccc3ccccc3c2)c2c(O)oc3cc(O)ccc3c2=O)c(O)oc2cc(O)ccc12
inactive: [15] > 100 µM | [1] 43.2 µM | [2] > 100 µM | [16] > 100 µM | [3] > 100 µM | [4] 38.5 µM | [5] > 100 µM | [6] > 100 µM | [7] 71 µM | [17] 11.2 µM | [8] > 100 µM | [9] 41.3 µM | [19] > 100 µM | [10] > 100 µM | [11] 54.2 µM | [12] 30.6 µM | [13] 21.3 µM | [14] > 100 µM

CN(C)Cc1cc(/C=C/C(=O)c2ccc(Cl)c(Cl)c2)cc(CN(C)C)c1O
inactive: [15] 15.9 µM | [1] 12.9 µM | [2] 15.5 µM | [16] 9.4 µM | [3] 16.1 µM | [4] 3.9 µM | [5] 13.9 µM | [6] 9.98 µM | [7] 13.6 µM | [17] 15 µM | [8] 19 µM | [18] 11.2 µM | [9] 10.4 µM | [19] 15.6 µM | [10] 7.05 µM | [11] 7.74 µM | [12] 13.1 µM | [14] 11.2 µM
